Data reported in ChEMBL document CHEMBL4177615 (Bioorg Med Chem, 2017).

Columns and labels:
[1] = system: Plasmodium falciparum; experiment: Antimalarial activity against Plasmodium falciparum 3D7 infected in ARh+ human erythrocytes at 0.1 uM after 42 to 48 hrs by Picogreen staining-based 96 well microplate assay; type: functional; settings: read-out: GI
[2] = system: Plasmodium falciparum; experiment: Antimalarial activity against Plasmodium falciparum 3D7 infected in ARh+ human erythrocytes at 10 uM after 42 to 48 hrs by Picogreen staining-based 96 well microplate assay; type: functional; settings: read-out: GI
[3] = system: Plasmodium falciparum; experiment: Antimalarial activity against Plasmodium falciparum 3D7 infected in ARh+ human erythrocytes at 0.01 uM after 42 to 48 hrs by Picogreen staining-based 96 well microplate assay; type: functional; settings: read-out: GI
[4] = system: Plasmodium falciparum; experiment: Antimalarial activity against Plasmodium falciparum 3D7 infected in ARh+ human erythrocytes after 42 to 48 hrs by Picogreen staining-based 96 well microplate assay; type: functional, organism-based
[5] = system: Plasmodium falciparum; experiment: Antimalarial activity against Plasmodium falciparum 3D7 infected in ARh+ human erythrocytes at 1 uM after 42 to 48 hrs by Picogreen staining-based 96 well microplate assay; type: functional; settings: read-out: GI

SMILES	inhibition of growth at 0.1 µM [1] [%]	inhibition of growth at 10 µM [2] [%]	inhibition of growth at 0.01 µM [3] [%]	IC50 [4] [µM]	inhibition of growth at 1 µM [5] [%]
Fc1ccc(Cn2c(NC3CCN(CCCc4ccccc4)CC3)nc3ccccc32)cc1	37	100	2	0.196	78
Fc1ccc(Cn2c(NC3CCN(Cc4ccccc4)CC3)nc3ccccc32)cc1	2	94	2	1.9	29
O=C(NCc1ccccc1)N1CCC(Nc2nc3ccccc3n2Cc2ccc(F)cc2)CC1	0	25	0	> 10	4
COCn1c(NC2CCN(CCc3ccc(OC)cc3)CC2)nc2ccccc21	0	64	0	6.74	5
COc1ccc(OC)c(S(=O)(=O)N2CCC(Nc3nc4ccccc4n3Cc3ccc(F)cc3)CC2)c1	4	61	5	6.85	8
O=C(N1CCOCC1)N1CCC(Nc2nc3ccccc3n2Cc2ccc(F)cc2)CC1	0	26	0	> 10	0
O=S(=O)(c1ccc(Cl)cc1)N1CCC(Nc2nc3ccccc3n2Cc2ccc(F)cc2)CC1	1	83	4	3.96	6
O=C(c1ccc(F)cc1)N1CCC(Nc2nc3ccccc3n2Cc2ccc(F)cc2)CC1	0	51	0	10	6
CC(C)CN1CCC(Nc2nc3ccccc3n2Cc2ccc(F)cc2)CC1	0	90	0	0.829	60
CC(C)S(=O)(=O)N1CCC(Nc2nc3ccccc3n2Cc2ccc(F)cc2)CC1	3	11	2	> 10	1
COc1ccc(CCN2CCC(Nc3nc4ccccc4n3Cc3ccc(Br)cc3)CC2)cc1	47	97	0	0.111	100
O=C(NCCc1ccccc1)N1CCC(Nc2nc3ccccc3n2Cc2ccc(F)cc2)CC1	1	49	8	> 10	15
O=C(Nc1ccc2c(c1)CCC2)N1CCC(Nc2nc3ccccc3n2Cc2ccc(F)cc2)CC1	2	66	1	6.28	5
Cc1ccc(S(=O)(=O)N2CCC(Nc3nc4ccccc4n3Cc3ccc(F)cc3)CC2)cc1	7	55	8	8.29	10
O=C(c1ccc(C(F)(F)F)cc1)N1CCC(Nc2nc3ccccc3n2Cc2ccc(F)cc2)CC1	0	66	3	6.18	6
O=C(c1ccccc1)N1CCC(Nc2nc3ccccc3n2Cc2ccc(F)cc2)CC1	0	18	5	> 10	8
CCC(CC)Cn1c(NC2CCN(CCc3ccc(OC)cc3)CC2)nc2ccccc21	16	95	0	0.24	100
CCCn1c(NC2CCN(CCc3ccc(OC)cc3)CC2)nc2ccccc21	3	100	0	0.416	82
Fc1ccc(Cn2c(NC3CCN(CC4CC4)CC3)nc3ccccc32)cc1	0	98	0	2.25	21
O=C(Nc1ccccc1)N1CCC(Nc2nc3ccccc3n2Cc2ccc(F)cc2)CC1	3	35	0	> 10	7
O=C(Nc1ccc(F)cc1F)N1CCC(Nc2nc3ccccc3n2Cc2ccc(F)cc2)CC1	0	39	2	> 10	4
O=C(c1ccc(Cl)cc1)N1CCC(Nc2nc3ccccc3n2Cc2ccc(F)cc2)CC1	3	36	4	> 10	5
CCCCCCn1c(NC2CCN(CCc3ccc(OC)cc3)CC2)nc2ccccc21	95	100	6	0.029 to 0.03	100
CC(C)(C)NC(=O)N1CCC(Nc2nc3ccccc3n2Cc2ccc(F)cc2)CC1	2	43	0	> 10	6
Fc1ccc(Cn2c(NC3CCN(CC4CCCCC4)CC3)nc3ccccc32)cc1	14	100	0	0.857	48
COc1ccc(NC(=O)N2CCC(Nc3nc4ccccc4n3Cc3ccc(F)cc3)CC2)c(OC)c1	1	57	0	8.14	5
Fc1ccc(Cn2c(NC3CCN(C/C=C/c4ccccc4)CC3)nc3ccccc32)cc1	12	100	1	0.718	55
Fc1ccc(Cn2c(NC3CCN(CCc4ccccc4)CC3)nc3ccccc32)cc1	43	100	9	0.125	90
CN1CCC(Nc2nc3ccccc3n2Cc2ccc(F)cc2)CC1	0	100	0	3.09	2
COc1ccc(CCN2CCC(Nc3nc4ccccc4n3Cc3ccccc3)CC2)cc1	14	100	0	0.344	82
